Data reported in ChEMBL document CHEMBL1158516, “Synthesis and application of a photoaffinity analog of dehydroepiandrosterone (DHEA)” (Bioorg Med Chem Lett, 2010).
Active and inactive are the calls of the source. The calls are words filed in the database; no cut-off is given here.

Test system: Endothelial cell
Assay: Binding affinity to DHEA receptor in bovine aortic endothelial cells exposed to UV for 15 mins at 5 nM after 1 hr by chemiluminescence
Type: cell-based
Details: Bos taurus

SMILES	Activity
O=C(CCCC[C@@H]1SC[C@@H]2NC(=O)N[C@@H]21)NCCCC[C@H](NC(=O)c1ccc(C(=O)c2ccccc2)cc1)C(=O)O	inactive
C[C@]12CC[C@H](O)CC1=CC[C@@H]1[C@@H]2CC[C@]2(C)/C(=N/OCC(=O)NCCCCCCNC(=O)[C@H](CCCCNC(=O)CCCC[C@@H]3SC[C@@H]4NC(=O)N[C@@H]43)NC(=O)c3ccc(C(=O)c4ccccc4)cc3)CC[C@@H]12	Active
